Measurements from US20120135089A1, “E3 LIGASE INHIBITORS” (priority 2009, published 2012).

Columns and labels:
[1] = tested on: RKO, RKO E6, H1299 and MEF's; experiment: cell cycle analysis by propidium iodide flow cytometry; assay type: cell-based; conditions: two days incubation
Method: RKO, RKO E6, H1299 and MEF's were seeded and treated with designated concentration of MEL23. After two days incubation, cells were harvested and fixed in ethanol, followed by staining in a solution of 7.3 μM RNaseA and 98.7 μM propidium iodide (Sigma, St. Louis, Mo.). The samples were read on a FACS Calibur flow cytometer (BD Biosciences, San Jose, Calif.) and analyzed with CeliQuest software (BD Biosciences).

[2] = tested on: Mdm2-ubiquitin conjugates; experiment: cell-based Mdm2 ubiquitination assay (HA-ubiquitin immunoprecipitation); set-up: species or system human; conditions: Mdm2-luciferase cells, with 10 μM MG132
Method: To obtain the results shown in FIG. 4A, Mdm2-luciferase cells were transfected with ubiquitin-HA and treated 8 hours later with 10 μg/ml (28 μM) MEL23, 10 μg/ml (31 μM) MEL24, or a DMSO control. After 16 hours, cells were additionally treated with 10 μM MG132 or a DMSO control. After 3 hours, cells were lysed and immunoprecipitated for 3 hours with anti-HA affinity matrix. Total lysates and immunoprecipitated samples were analyzed by Western blotting using anti-Mdm2 antibody. NT indicates a no treatment control. […] After 8 hours, cells were treated with 10 μg/ml (28 μM) MEL23, 10 μg/ml (31 μM) MEL24, or a DMSO control. After 16 hours, cells were additionally treated with 10 μM MG132 or a DMSO control. After 3 hours cells were lysed and analyzed by Western blotting using anti-p53 antibody. […]
The Mdm2-luciferase cell line was transfected with HA-ubiquitin and pre-treated with 10 μg/ml MEL23 or MEL24, followed by 10 μM MG132. […] Cells lysates were immunoprecipitated with an anti-HA antibody and analyzed by Western blotting. […]
Briefly, Mdm2-luciferase cells were transfected with HA-ubiquitin. […] Input lysates and immunoprecipitated samples were analyzed by Western blotting using anti-Mdm2 antibody.
Briefly, Mdm2-luciferase cells were transfected with HA-ubiquitin. […] Input lysates and immunoprecipitated samples were analyzed by Western blotting using anti-Mdm2 antibody. […]

[3] = target: T1, Roc1/Cul1 E3 RING domain ligase (Homo sapiens, UniProt P62877+Q13616); experiment: in vitro Roc1/Cul1 E3 ligase ubiquitination assay; assay type: biochemical
T1 construct: gift from Zhen-Qiang Pan, Mount Sinai School of Medicine
Method: These assays were performed with 100 ng of full-length Flag-Mdm2 or 200 ng of Flag-Mdm2/HA-MdmX complexes (100 ng of each protein as each are present in a 1:1 ratio, when purified), ^32P-labeled ubiquitin, UbCH5c, and E1. Following a 30-minute incubation at 37° C., reactions were terminated and resolved on a SDS-PAGE gel followed by autoradiography. PC indicates positive control, and NC indicates negative control with UbCH5C eliminated from the reaction. The gels were quantified by phosphoimaging using ImageQuant software (GE Healthcare Bio-Sciences Corp., Piscataway, N.J.). […] Reactions were performed as in FIG. 11A except 500 ng GST-Mdm2 (residues 400-491) and GST-MdmX (residues 400-490) were used for ubiquitin polymerization. […] Reactions were performed as in FIG. 11A except with 3 μg of the Roc1/Cul1 ligase complex. Ubiquitination activity of the complex was tested in the presence of increasing concentrations of MEL23 and MEL24.
Ubiquitination assays in the presence of increasing concentrations of MEL compounds were performed with 1.5 μg of the Roc1-Cul1 ligase complex, ^32P-labeled ubiquitin, UbCH5c, and E1. Following 30 min incubation at 37° C., reactions were terminated and resolved on a SDS-PAGE gel (FIG. 31A) followed by autoradiography and quantitation (FIG. 31B). […]

p53 ubiquitination = experiment: cell-based p53 ubiquitination assay in H1299 cells; set-up: species or system human; conditions: H1299 transfected with p53, Mdm2, ubiquitin; 10 μg/ml pre-treatment, 10 μM MG132
Method: To obtain the results shown in FIG. 4A, Mdm2-luciferase cells were transfected with ubiquitin-HA and treated 8 hours later with 10 μg/ml (28 μM) MEL23, 10 μg/ml (31 μM) MEL24, or a DMSO control. After 16 hours, cells were additionally treated with 10 μM MG132 or a DMSO control. After 3 hours, cells were lysed and immunoprecipitated for 3 hours with anti-HA affinity matrix. Total lysates and immunoprecipitated samples were analyzed by Western blotting using anti-Mdm2 antibody. NT indicates a no treatment control. […] After 8 hours, cells were treated with 10 μg/ml (28 μM) MEL23, 10 μg/ml (31 μM) MEL24, or a DMSO control. After 16 hours, cells were additionally treated with 10 μM MG132 or a DMSO control. After 3 hours cells were lysed and analyzed by Western blotting using anti-p53 antibody. “p53-Ub” indicates the slower migrating species of the protein that are the ubiquitin-conjugated forms.
To test the effects of the MEL compounds on p53 ubiquitination, H1299 cells were transfected with plasmids expressing p53, Mdm2, and ubiquitin and pre-treated with 10 μg/ml MEL23 or MEL24, followed by treatment with 10 μM MG132. Ubiquitination of p53 was analyzed by Western blotting. […] In fact, the half-life of p53 increased from an hour to greater than 6 hours with 5 μg/ml MEL23 treatment (FIG. 32). Thus, treatment with MEL23 and MEL24 inhibits ubiquitin conjugation to Mdm2 and p53.

T1 sequence (P62877 whole entry, the tested form may be a part): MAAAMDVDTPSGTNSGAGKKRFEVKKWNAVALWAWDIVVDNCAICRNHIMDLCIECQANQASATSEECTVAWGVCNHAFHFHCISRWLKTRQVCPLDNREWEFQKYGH
T1 sequence (Q13616 whole entry, the tested form may be a part): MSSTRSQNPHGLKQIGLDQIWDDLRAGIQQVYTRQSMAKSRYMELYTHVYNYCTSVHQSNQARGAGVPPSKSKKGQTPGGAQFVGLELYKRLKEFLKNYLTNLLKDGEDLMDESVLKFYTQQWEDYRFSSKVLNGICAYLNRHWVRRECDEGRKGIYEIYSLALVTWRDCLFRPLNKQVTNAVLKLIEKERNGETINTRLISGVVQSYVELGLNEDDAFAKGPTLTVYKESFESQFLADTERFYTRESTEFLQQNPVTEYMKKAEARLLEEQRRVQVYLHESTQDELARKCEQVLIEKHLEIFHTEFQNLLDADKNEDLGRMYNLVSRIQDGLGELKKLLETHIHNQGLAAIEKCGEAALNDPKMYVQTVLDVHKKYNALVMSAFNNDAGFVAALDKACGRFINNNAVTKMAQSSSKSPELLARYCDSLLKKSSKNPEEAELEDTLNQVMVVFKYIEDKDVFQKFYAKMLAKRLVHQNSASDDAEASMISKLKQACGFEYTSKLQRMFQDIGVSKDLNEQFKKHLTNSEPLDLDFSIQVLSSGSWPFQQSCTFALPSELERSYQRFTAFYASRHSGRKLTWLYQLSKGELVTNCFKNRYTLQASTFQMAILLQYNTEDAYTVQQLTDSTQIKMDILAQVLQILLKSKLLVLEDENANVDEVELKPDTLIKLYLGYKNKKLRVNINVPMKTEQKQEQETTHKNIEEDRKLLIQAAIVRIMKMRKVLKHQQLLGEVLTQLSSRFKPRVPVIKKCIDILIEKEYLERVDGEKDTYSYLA

Structure (SMILES)	cell cycle [1]	Mdm2 ubiquitination in cells (Mdm2-ubiquitin conjugates) [2]	Roc1/Cul1 E3 ligase activity in vitro [3]	p53 ubiquitination in cells (p53 ubiquitination)
CCCCn1c(=O)[nH]c(O)c(C2NCCc3c2[nH]c2ccccc32)c1=O (centres unmarked) [MEL23]	causes G2 cell cycle arrest	significantly less Mdm2-ubiquitin conjugates were immunoprecipitated	no inhibition	eliminated by pre-treatment
Cn1c(O)c(C2NCCc3c2[nH]c2ccccc32)c(=O)n(C)c1=O (centres unmarked) [MEL24]	promotes G2 cell cycle arrest	significantly less Mdm2-ubiquitin conjugates were immunoprecipitated	no inhibition	eliminated by pre-treatment
